Test results as given in patent publication US20160002226A1, “PYRI[…] AND THEIR USE IN THE TREATMENT, AMELIORATION OR PREVENTION OF INFLUENZA” (F. Hoffmann-La Roche AG, priority 2014, published 2016).

Each compound was assayed against T1, influenza A virus (IAV) PA-Nter fragment (amino acids 1-209) (Influenza A virus, UniProt P31343) (assay: FRET endonuclease activity assay). Conditions: PA-Nter 0.5 μM, 1.6 μM RNA substrate.
T1 construct: PA-Nter fragment (amino acids 1-209); made in house
Assay type: biochemical

SMILES | FRET IC50 | IC50
CC(C)N1CCn2c(CNC(=O)c3ccccc3)cc(=O)c(O)c2C1=O | insoluble | 
CC(C)N1CCn2c(CNC(=O)c3cccn3C)cc(=O)c(O)c2C1=O |  | 310 nM
CC(C)N1CCn2c(CNC(=O)CC3CC3)cc(=O)c(O)c2C1=O |  | 300 nM
CC(C)N1CCn2c(CNC(=O)CC(F)(F)F)cc(=O)c(O)c2C1=O |  | 320 nM
CC(C)N1CCn2c(CNC(=O)CCC(F)(F)F)cc(=O)c(O)c2C1=O |  | 250 nM
CC(C)N1CCn2c(CNC(=O)CC34C[C@H]5C[C@@H](C3)C[C@@H](C4)C5)cc(=O)c(O)c2C1=O |  | 1680 nM
CC(C)N1CCn2c(CNC(=O)C34CCC(CO)(CC3)CC4)cc(=O)c(O)c2C1=O |  | 1870 nM
CC(C)N1CCn2c(CNC(=O)C3(c4ccc(Cl)cc4)CCCC3)cc(=O)c(O)c2C1=O |  | 840 nM
CC(C)N1CCn2c(CNC(=O)c3ccc(C#N)cc3)cc(=O)c(O)c2C1=O |  | 400 nM
CC(C)N1CCn2c(CNC(=O)c3ccc(C(F)(F)F)cc3)cc(=O)c(O)c2C1=O |  | 9450 nM
CC(C)N1CCn2c(CNC(=O)[C@]34C[C@H]5C[C@H](C[C@H](C5)C3)C4)cc(=O)c(O)c2C1=O |  | 1430 nM
CC(C)N1CCn2c(CNC(=O)CC(C)(C)C)cc(=O)c(O)c2C1=O |  | 380 nM
CC(C)N1CCn2c(CNC(=O)C3CCCCC3)cc(=O)c(O)c2C1=O |  | 360 nM
CC(C)N1CCn2c(CNC(=O)C3CC3)cc(=O)c(O)c2C1=O |  | 350 nM

These compounds were tested on influenza A virus A/Aichi/2/68 (H3N2) on MDCK cells (assay: Cytopathic effect (CPE) assay). Conditions: @ 50 μM.
Assay type: cell-based

SMILES | CPE (% CPE reduction)
CCN(Cc1ccc(Cl)cc1)Cc1cc(=O)c(O)c2n1CCN(C(C)C)C2=O.O=C(O)C(F)(F)F | 18% @ 50 μM
CC(C)N1CCn2c(CN(C)Cc3cccc(Cl)c3)cc(=O)c(O)c2C1=O.O=C(O)C(F)(F)F | 30.8% @ 50 μM

Same assay, conditions: Influenza A virus, 48 hrs, the 1st table

SMILES | IC50
CCCN(Cc1cc(=O)c(O)c2n1CCN(C(C)C)C2=O)C(C)=O | > 50000 nM
CCCN(Cc1cc(=O)c(O)c2n1CCN(C(C)C)C2=O)C(=O)C1CC1 | > 50000 nM
CCCN(Cc1cc(=O)c(O)c2n1CCN(C(C)C)C2=O)C(=O)c1ccccc1 | > 50000 nM
CCCN(Cc1cc(=O)c(O)c2n1CCN(C(C)C)C2=O)C(=O)C1CCCCC1 | > 50000 nM
CC(C)N1CCn2c(CNC(=O)C3CC(F)(F)C3)cc(=O)c(O)c2C1=O | > 50000 nM
CC(C)N1CCn2c(CNC3(c4ccccc4)CCCC3)cc(=O)c(O)c2C1=O | > 50000 nM
CC(C)N1CCn2c(CN(Cc3cccc4ccccc34)C3CC3)cc(=O)c(O)c2C1=O | > 50000 nM
CC(C)N1CCn2c(CN(Cc3ccccc3-c3ccccc3)C3CC3)cc(=O)c(O)c2C1=O | > 50000 nM
CC(C)N1CCn2c(CNC(=O)c3ccccc3)cc(=O)c(O)c2C1=O | > 50000 nM
CC(C)N1CCn2c(CNC(=O)c3cccn3C)cc(=O)c(O)c2C1=O | > 50000 nM
CC(C)N1CCn2c(CNC(=O)CC3CC3)cc(=O)c(O)c2C1=O | > 50000 nM
CC(C)N1CCn2c(CNC(=O)CC(F)(F)F)cc(=O)c(O)c2C1=O | > 50000 nM
CC(C)N1CCn2c(CNC(=O)CCC(F)(F)F)cc(=O)c(O)c2C1=O | > 50000 nM
CC(C)N1CCn2c(CNC(=O)CC34C[C@H]5C[C@@H](C3)C[C@@H](C4)C5)cc(=O)c(O)c2C1=O | > 50000 nM
CC(C)N1CCn2c(CNC(=O)C34CCC(CO)(CC3)CC4)cc(=O)c(O)c2C1=O | > 50000 nM
CC(C)N1CCn2c(CNC(=O)C3(c4ccc(Cl)cc4)CCCC3)cc(=O)c(O)c2C1=O | > 50000 nM
CC(C)N1CCn2c(CNC(=O)c3ccc(C#N)cc3)cc(=O)c(O)c2C1=O | > 50000 nM
CC(C)N1CCn2c(CNC(=O)c3ccc(C(F)(F)F)cc3)cc(=O)c(O)c2C1=O | > 50000 nM
CC(C)N1CCn2c(CNC(=O)[C@]34C[C@H]5C[C@H](C[C@H](C5)C3)C4)cc(=O)c(O)c2C1=O | > 50000 nM
CC(C)N1CCn2c(CNC(=O)CC(C)(C)C)cc(=O)c(O)c2C1=O | > 50000 nM
CC(C)N1CCn2c(CNC(=O)C3CCCCC3)cc(=O)c(O)c2C1=O | > 50000 nM
CC(C)N1CCn2c(CNC(=O)C3CC3)cc(=O)c(O)c2C1=O | > 50000 nM

Same assay, conditions: Influenza A virus, 48 hrs, the 2nd table

SMILES | IC50
CC(C)N1CCn2c(CN(Cc3ccccc3)C(=O)C3CC(F)(F)C3)cc(=O)c(O)c2C1=O | > 50000 nM
CC(C)N1CCn2c(CN(C)Cc3ccc(Cl)cc3)cc(=O)c(O)c2C1=O | > 50000 nM
CC(C)N1CCn2c(CN(C)Cc3ccccc3)cc(=O)c(O)c2C1=O | > 50000 nM
CCN(Cc1ccccc1)Cc1cc(=O)c(O)c2n1CCN(C(C)C)C2=O | > 50000 nM
CCCN(Cc1cccc2ccccc12)Cc1cc(=O)c(O)c2n1CCN(C(C)C)C2=O | > 50000 nM
CCCN(Cc1ccccc1-c1ccccc1)Cc1cc(=O)c(O)c2n1CCN(C(C)C)C2=O.O=C(O)C(F)(F)F | > 50000 nM
CCCN(Cc1cccc(-c2ccccc2)c1)Cc1cc(=O)c(O)c2n1CCN(C(C)C)C2=O | > 50000 nM
CCCN(Cc1ccc(-c2ccccc2)cc1)Cc1cc(=O)c(O)c2n1CCN(C(C)C)C2=O | > 50000 nM
CC(C)N1CCn2c(CN(Cc3cccc(-c4ccccc4)c3)C3CC3)cc(=O)c(O)c2C1=O | > 50000 nM
CC(C)N1CCn2c(CN(Cc3ccc(-c4ccccc4)cc3)C3CC3)cc(=O)c(O)c2C1=O | > 50000 nM
CC(C)N1CCn2c(CN(C)Cc3ccc(-c4ccccc4)cc3)cc(=O)c(O)c2C1=O | > 50000 nM
CC(C)N1CCn2c(CN(Cc3cccc(Cl)c3)C3CC3)cc(=O)c(O)c2C1=O | > 50000 nM
CCN(Cc1cccc2ccccc12)Cc1cc(=O)c(O)c2n1CCN(C(C)C)C2=O | > 50000 nM
CCCN(Cc1cc(=O)c(O)c2n1CCN(C(C)C)C2=O)C1(c2ccccc2)CCCC1 | > 50000 nM
CCCN(Cc1cc(=O)c(O)c2n1CCN(C(C)C)C2=O)CC1(c2ccccc2)CCCC1 | > 50000 nM

Each compound was assayed against whole RNP complex of IAV strain A/PR/8/34 (Influenza A virus, UniProt P03433) (assay: Transcription assay (TA assay)). Conditions: RNPs of A/PR/8/34, capped RNA substrate.
Assay type: biochemical

SMILES | IC50 | TA IC50
CC(C)N1CCn2c(CN(Cc3ccccc3)C(=O)C3CC(F)(F)C3)cc(=O)c(O)c2C1=O | 2980 nM | 
CC(C)N1CCn2c(CN(C)Cc3ccc(Cl)cc3)cc(=O)c(O)c2C1=O | 2110 nM | 
CC(C)N1CCn2c(CN(C)Cc3ccccc3)cc(=O)c(O)c2C1=O | 804 nM | 
CCN(Cc1ccccc1)Cc1cc(=O)c(O)c2n1CCN(C(C)C)C2=O | 1560 nM | 
CCN(Cc1ccc(Cl)cc1)Cc1cc(=O)c(O)c2n1CCN(C(C)C)C2=O.O=C(O)C(F)(F)F | 682 nM | 
CC(C)N1CCn2c(CN(C)Cc3cccc(Cl)c3)cc(=O)c(O)c2C1=O.O=C(O)C(F)(F)F | 81 nM | 
CCCN(Cc1cccc2ccccc12)Cc1cc(=O)c(O)c2n1CCN(C(C)C)C2=O | 1020 nM | 
CCCN(Cc1ccccc1-c1ccccc1)Cc1cc(=O)c(O)c2n1CCN(C(C)C)C2=O.O=C(O)C(F)(F)F |  | in- soluble
CCCN(Cc1cccc(-c2ccccc2)c1)Cc1cc(=O)c(O)c2n1CCN(C(C)C)C2=O | 690 nM | 
CCCN(Cc1ccc(-c2ccccc2)cc1)Cc1cc(=O)c(O)c2n1CCN(C(C)C)C2=O | 63800 nM | 
CC(C)N1CCn2c(CN(Cc3cccc(-c4ccccc4)c3)C3CC3)cc(=O)c(O)c2C1=O | 533 nM | 
CC(C)N1CCn2c(CN(Cc3ccc(-c4ccccc4)cc3)C3CC3)cc(=O)c(O)c2C1=O | 5310 nM | 
CC(C)N1CCn2c(CN(C)Cc3ccc(-c4ccccc4)cc3)cc(=O)c(O)c2C1=O | 11700 nM | 
CC(C)N1CCn2c(CN(Cc3cccc(Cl)c3)C3CC3)cc(=O)c(O)c2C1=O | 171 nM | 
CCN(Cc1cccc2ccccc12)Cc1cc(=O)c(O)c2n1CCN(C(C)C)C2=O | 220 nM | 
CCCN(Cc1cc(=O)c(O)c2n1CCN(C(C)C)C2=O)C1(c2ccccc2)CCCC1 | 870 nM | 
CCCN(Cc1cc(=O)c(O)c2n1CCN(C(C)C)C2=O)CC1(c2ccccc2)CCCC1 | 452 nM | 
